According to US12447153B2, “HER2 mutation inhibitors” (Array BioPharma Inc., priority 2021, dated 2025):
pIC50: −log10 of the molar value.

Legend:
EGFR = EGFR (Homo sapiens (Human), UniProt P00533); assay: ErbB Enzyme Assay (HTRF KinEASE-TK), Assay 3; type: biochemical
EGFR wild type (EGFR WT) = EGFR wild type (EGFR WT) (Homo sapiens (Human), UniProt P00533); assay: Cellular Phosphorylation Assay, Assay 5 (EGF-stimulated EGFR phosphorylation, NIH 3T3 cells); type: cell-based
MDR1 (P-gp) = MDR1 (P-gp) (Homo sapiens (Human), UniProt P08183); assay: in vitro; details: pig, LLC-PK1
[1] = target: ErbB2 with Exon 20 YVMA insertion (HER2-YVMA) (Homo sapiens (Human), UniProt P04626, INS775YVMA); assay: Cellular Phosphorylation Assay, Assay 4 (constitutive ErbB2 phosphorylation, NIH 3T3 cells); type: cell-based
BCRP = BCRP (Homo sapiens (Human), UniProt Q9UNQ0); assay: BCRP MDCKII efflux assay (Assay 7); type: in vitro ADME; details: dog; efflux ratio Papp(B-A)/Papp(A-B), BCRP MDCKII cells; read-out: Assay 7 Pe Ratio
Description: Assay conditions included with and without the BCRP-specific inhibitor, KO143, at a concentration of 0.3 μM to ascertain the contribution of BCRP to the efflux value of the test compound.
Final organic concentration in the assay was 1%.

ErbB2 WT = ErbB2 WT (Homo sapiens (Human), UniProt P04626); assay: ErbB Enzyme Assay (HTRF KinEASE-TK), Assay 2; type: biochemical
[2] = EGF-stimulated EGFR WT phosphorylation
[3] = cellular EGFR WT phosphorylation, EGF-stimulated
[4] = cellular ErbB2 YVMA phosphorylation

ErbB2 with Exon 20 YVMA insertion (HER2-YVMA), sequence (P04626 other isoform, or with tags, fused parts or gaps ins YVMA behind 775): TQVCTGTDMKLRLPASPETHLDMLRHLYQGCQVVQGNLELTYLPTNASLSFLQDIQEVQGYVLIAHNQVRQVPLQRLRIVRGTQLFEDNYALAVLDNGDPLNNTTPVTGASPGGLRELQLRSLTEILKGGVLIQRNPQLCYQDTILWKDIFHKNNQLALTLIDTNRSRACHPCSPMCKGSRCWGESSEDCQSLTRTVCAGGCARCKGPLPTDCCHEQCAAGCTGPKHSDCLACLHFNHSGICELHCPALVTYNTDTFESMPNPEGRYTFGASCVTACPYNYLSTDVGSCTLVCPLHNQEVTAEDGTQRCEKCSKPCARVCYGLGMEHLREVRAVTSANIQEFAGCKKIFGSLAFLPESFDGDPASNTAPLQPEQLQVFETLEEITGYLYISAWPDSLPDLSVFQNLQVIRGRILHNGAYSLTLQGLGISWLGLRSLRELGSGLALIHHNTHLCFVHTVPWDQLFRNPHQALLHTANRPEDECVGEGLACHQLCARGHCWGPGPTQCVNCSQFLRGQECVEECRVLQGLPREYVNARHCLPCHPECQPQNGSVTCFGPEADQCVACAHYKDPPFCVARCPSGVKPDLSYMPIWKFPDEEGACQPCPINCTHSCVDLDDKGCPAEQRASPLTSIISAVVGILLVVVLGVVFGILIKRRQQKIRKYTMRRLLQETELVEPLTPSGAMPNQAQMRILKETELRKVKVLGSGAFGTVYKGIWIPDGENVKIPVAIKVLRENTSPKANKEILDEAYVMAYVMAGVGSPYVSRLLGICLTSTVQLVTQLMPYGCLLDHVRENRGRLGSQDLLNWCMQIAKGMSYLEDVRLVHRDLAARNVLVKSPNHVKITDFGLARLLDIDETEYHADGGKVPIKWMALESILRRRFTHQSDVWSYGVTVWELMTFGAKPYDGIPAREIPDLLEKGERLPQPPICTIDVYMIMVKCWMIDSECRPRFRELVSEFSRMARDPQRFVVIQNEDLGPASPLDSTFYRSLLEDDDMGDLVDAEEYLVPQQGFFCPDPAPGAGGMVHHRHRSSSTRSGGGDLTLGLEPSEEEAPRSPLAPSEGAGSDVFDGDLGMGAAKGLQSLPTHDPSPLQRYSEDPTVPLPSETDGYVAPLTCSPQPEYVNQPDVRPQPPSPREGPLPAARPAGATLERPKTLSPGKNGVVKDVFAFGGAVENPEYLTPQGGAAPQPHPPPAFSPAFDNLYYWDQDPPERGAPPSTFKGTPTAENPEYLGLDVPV
MDR1 (P-gp), sequence (P08183 whole entry): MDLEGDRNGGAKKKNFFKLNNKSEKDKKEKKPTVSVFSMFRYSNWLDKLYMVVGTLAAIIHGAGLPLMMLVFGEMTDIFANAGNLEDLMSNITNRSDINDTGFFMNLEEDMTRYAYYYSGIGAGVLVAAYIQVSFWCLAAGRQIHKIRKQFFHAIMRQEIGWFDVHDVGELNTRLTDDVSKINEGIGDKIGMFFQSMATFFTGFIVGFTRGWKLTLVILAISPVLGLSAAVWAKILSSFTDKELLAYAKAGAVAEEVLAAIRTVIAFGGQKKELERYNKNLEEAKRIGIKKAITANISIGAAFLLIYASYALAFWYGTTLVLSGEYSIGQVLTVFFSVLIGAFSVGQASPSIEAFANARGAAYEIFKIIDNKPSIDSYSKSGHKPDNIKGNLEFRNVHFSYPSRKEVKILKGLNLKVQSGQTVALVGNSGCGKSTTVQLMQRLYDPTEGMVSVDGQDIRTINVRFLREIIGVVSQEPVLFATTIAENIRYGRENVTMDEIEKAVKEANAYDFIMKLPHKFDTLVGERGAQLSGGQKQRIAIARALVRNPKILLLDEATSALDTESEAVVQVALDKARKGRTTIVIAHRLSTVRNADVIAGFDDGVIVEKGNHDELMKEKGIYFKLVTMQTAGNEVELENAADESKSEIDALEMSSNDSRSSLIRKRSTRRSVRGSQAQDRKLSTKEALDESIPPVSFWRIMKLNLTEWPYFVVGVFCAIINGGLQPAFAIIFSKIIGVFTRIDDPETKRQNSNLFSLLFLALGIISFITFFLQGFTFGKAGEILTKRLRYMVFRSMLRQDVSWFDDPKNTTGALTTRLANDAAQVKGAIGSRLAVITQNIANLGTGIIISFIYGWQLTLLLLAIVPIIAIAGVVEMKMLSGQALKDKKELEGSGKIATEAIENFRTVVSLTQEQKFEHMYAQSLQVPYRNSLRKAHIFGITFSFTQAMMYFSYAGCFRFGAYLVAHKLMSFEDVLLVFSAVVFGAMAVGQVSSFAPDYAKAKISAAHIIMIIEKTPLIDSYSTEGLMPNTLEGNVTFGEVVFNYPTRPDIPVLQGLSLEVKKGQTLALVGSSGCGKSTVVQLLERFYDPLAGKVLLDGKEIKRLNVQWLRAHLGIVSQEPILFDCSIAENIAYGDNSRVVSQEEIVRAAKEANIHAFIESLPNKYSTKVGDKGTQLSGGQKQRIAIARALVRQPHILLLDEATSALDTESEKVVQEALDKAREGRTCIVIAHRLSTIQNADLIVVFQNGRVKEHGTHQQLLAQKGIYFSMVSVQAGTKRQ
EGFR wild type (EGFR WT), sequence (P00533 25-1210): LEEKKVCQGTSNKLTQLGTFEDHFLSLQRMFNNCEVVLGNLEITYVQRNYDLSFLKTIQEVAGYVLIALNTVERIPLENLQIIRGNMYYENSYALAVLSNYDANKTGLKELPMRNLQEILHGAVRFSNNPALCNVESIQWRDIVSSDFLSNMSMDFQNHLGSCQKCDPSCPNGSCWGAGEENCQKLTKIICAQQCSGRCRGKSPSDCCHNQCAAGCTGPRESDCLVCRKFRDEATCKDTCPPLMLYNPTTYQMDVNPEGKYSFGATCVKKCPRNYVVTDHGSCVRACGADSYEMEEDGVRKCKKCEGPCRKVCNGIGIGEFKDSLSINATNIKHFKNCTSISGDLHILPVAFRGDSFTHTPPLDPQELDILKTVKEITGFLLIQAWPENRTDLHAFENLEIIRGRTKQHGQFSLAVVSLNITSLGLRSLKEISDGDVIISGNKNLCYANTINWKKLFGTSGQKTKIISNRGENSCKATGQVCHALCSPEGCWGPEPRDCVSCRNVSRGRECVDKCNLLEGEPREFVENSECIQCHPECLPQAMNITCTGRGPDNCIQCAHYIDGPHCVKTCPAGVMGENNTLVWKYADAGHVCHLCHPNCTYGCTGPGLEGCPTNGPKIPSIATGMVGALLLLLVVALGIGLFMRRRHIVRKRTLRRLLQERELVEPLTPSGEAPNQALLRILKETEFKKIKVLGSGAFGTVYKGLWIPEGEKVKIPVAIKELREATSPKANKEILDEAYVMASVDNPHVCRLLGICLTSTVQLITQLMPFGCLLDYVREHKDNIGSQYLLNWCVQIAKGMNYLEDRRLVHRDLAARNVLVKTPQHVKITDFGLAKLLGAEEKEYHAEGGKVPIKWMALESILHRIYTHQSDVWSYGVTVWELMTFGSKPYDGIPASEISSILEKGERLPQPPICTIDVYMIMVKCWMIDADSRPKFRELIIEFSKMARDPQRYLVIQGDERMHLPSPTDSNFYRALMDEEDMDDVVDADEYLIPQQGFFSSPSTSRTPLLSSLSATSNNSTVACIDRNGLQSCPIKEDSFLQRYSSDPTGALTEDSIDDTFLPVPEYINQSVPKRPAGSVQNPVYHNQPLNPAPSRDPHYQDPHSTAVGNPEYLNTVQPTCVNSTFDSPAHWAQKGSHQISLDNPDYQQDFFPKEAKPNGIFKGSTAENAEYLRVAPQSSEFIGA
EGFR, sequence (P00533 25-1210): as above

pIC50 (EGFR; EGFR enzyme) | pIC50 (EGFR wild type (EGFR WT); [2]) | efflux ratio at 2 h, 1 µM (MDR1 (P-gp)) | pIC50 ([1]; ErbB2 YVMA phosphorylation) | efflux ratio at 2 h, 1 µM (BCRP) | pIC50 (ErbB2 WT; ErbB2 WT enzyme) | pIC50 (EGFR; EGFR enzyme assay) | pIC50 (EGFR wild type (EGFR WT); [3]) | pIC50 [1, 4] | pIC50 (ErbB2 WT; ErbB2 WT enzyme assay) | Structure (SMILES)
5.10 | ≤ 5.30 | 1.4 | 7.78 | 1.4 | 7.18 |  |  |  |  | C=CC(=O)N1CCC[C@@H](c2ccc3ncnc(Nc4cc(C)c(Oc5ccc6c(c5)ncn6C)cc4F)c3n2)C1 (racemic) [Example 129, rac-(R)-1-(3-(4-((2-fluoro-5-methyl-4-((1-methyl-1H-benzo[d]imidazol-5-yl)oxy)phenyl)amino)pyrido[3,2-d]pyrimidin-6-yl)piperidin-1-yl)prop-2-en-1-one]
 |  | 1.3 |  | 3.5 |  | 6.15 | 5.84 | 7.76 | 8.09 | C=CC(=O)N1C[C@H](c2ccc3ncnc(Nc4ccc(Oc5ccn6ncnc6c5)c(C)c4F)c3n2)C[C@@H]1C1CC1 (racemic) [Example 302]
 |  | 4.8 |  | 3.6 |  | 6.72 | 6.58 | 8.24 | 8.09 | C=CC(=O)N1C[C@@H]2CC[C@H]1CN2c1ccc2ncnc(Nc3cc(C)c(Oc4ccn5ncnc5c4)cc3F)c2n1 [Example 319]
6.66 | 6.98 | 1.2 | 8.40 | 1.4 | 8.08 |  |  |  |  | C=CC(=O)N1CCC(Oc2ccc3ncnc(Nc4ccc(Oc5ccn6ncnc6c5)c(Cl)c4F)c3n2)CC1 [Example 13, 1-(4-((4-((4-([1,2,4]triazolo[1,5-a]pyridin-7-yloxy)-3-chloro-2-fluorophenyl)amino)pyrido[3,2-d]pyrimidin-6-yl)oxy)piperidin-1-yl)prop-2-en-1-one]
≤ 5.00 | 5.53 | 1.3 | 7.27 | 2.5 | 5.48 |  |  |  |  | C=CC(=O)N1CCC(Oc2ccc3ncnc(Nc4ccc(Oc5ccc6cn(C)nc6c5)c(C)c4F)c3n2)CC1 [Example 6, 1-(4-((4-((2-fluoro-3-methyl-4-((2-methyl-2H-indazol-6-yl)oxy)phenyl)amino)pyrido[3,2-d]pyrimidin-6-yl)oxy)piperidin-1-yl)prop-2-en-1-one]
6.11 | ≤ 5.30 | 2.5 | 7.77 | 2.9 | 7.83 |  |  |  |  | C=CC(=O)N1CCC(c2nc3c(Nc4ccc(Oc5ccc6c(c5)ncn6C)c(C)c4)ncnc3cc2OC)CC1 [Example 42, 1-(4-(7-methoxy-4-((3-methyl-4-((1-methyl-1H-benzo[d]imidazol-5-yl)oxy)phenyl)amino)pyrido[3,2-d]pyrimidin-6-yl)piperidin-1-yl)prop-2-en-1-one]
5.18 | 6.03 | 1.3 | 7.64 | 1.8 | 7.84 |  |  |  |  | C=CC(=O)N1CCN(c2ccc3ncnc(Nc4ccc(Oc5ccn6ncnc6c5)c(C)c4F)c3n2)CC1(C)C [Example 31, 1-(4-(4-((4-([1,2,4]triazolo[1,5-a]pyridin-7-yloxy)-2-fluoro-3-methylphenyl)amino)pyrido[3,2-d]pyrimidin-6-yl)-2,2-dimethylpiperazin-1-yl)prop-2-en-1-one]

The next lines start with the molecule.

Structure (SMILES) | pIC50 (EGFR; EGFR enzyme) | pIC50 (EGFR wild type (EGFR WT); [2]) | efflux ratio at 2 h, 1 µM (MDR1 (P-gp)) | pIC50 ([1]; ErbB2 YVMA phosphorylation) | efflux ratio at 2 h, 1 µM (BCRP) | pIC50 (ErbB2 WT; ErbB2 WT enzyme) | pIC50 (EGFR; EGFR enzyme assay) | pIC50 (EGFR wild type (EGFR WT); [3]) | pIC50 [1, 4] | pIC50 (ErbB2 WT; ErbB2 WT enzyme assay)
C=CC(=O)N1C[C@H]2CC[C@@H](C1)[C@@H]2c1ccc2ncnc(Nc3cc(C)c(Oc4ccn5ncnc5c4)cc3F)c2n1 [Example 222, 1-((1R,5S,8r)-8-(4-((4-([1,2,4]triazolo[1,5-a]pyridin-7-yloxy)-2-fluoro-5-methylphenyl)amino)pyrido[3,2-d]pyrimidin-6-yl)-3-azabicyclo[3.2.1]octan-3-yl)prop-2-en-1-one] | 5.23 | ≤ 5.30 | 1.3 | 6.51 | 1.4 | 6.88 |  |  |  | 
C=CC(=O)N1CCN(c2ccc3ncnc(Nc4ccc(Oc5ccn6ncnc6c5)c(Cl)c4F)c3n2)CC1 [Example 30, 1-(4-(4-((4-([1,2,4]triazolo[1,5-a]pyridin-7-yloxy)-3-chloro-2-fluorophenyl)amino)pyrido[3,2-d]pyrimidin-6-yl)piperazin-1-yl)prop-2-en-1-one] | 6.70 | 7.06 | 1.5 | 8.64 | 5 | 8.22 |  |  |  | 
C=CC(=O)N1[C@@H]2CC[C@H]1[C@H](c1ccc3ncnc(Nc4ccc(Oc5ccn6ncnc6c5)c(Cl)c4F)c3n1)C2 [Example 404] |  |  | 1.2 |  | 5.2 |  | 6.98 | ≤ 5.30 | 7.94 | 8.14
C=CC(=O)N1C[C@H]2C[C@@H]1[C@H](c1ccc3ncnc(Nc4ccc(Oc5ccc6c(c5)ncn6C)c(C)c4F)c3n1)C2 (racemic) [Example 202, rac-1-((1R,4R,6R)-6-(4-((2-fluoro-3-methyl-4-((1-methyl-1H-benzo[d]imidazol-5-yl)oxy)phenyl)amino)pyrido[3,2-d]pyrimidin-6-yl)-2-azabicyclo[2.2.1]heptan-2-yl)prop-2-en-1-one] | 6.26 | 5.37 | 1.2 | 7.69 | 2.8 | 7.81 |  |  |  | 
C=CC(=O)N1CC[C@H]2CN(c3ccc4ncnc(Nc5ccc(Oc6ccn7ncnc7c6)c(Cl)c5F)c4n3)C[C@H]21 [Example 49, 1-((3aS,6aS)-5-(4-((4-([1,2,4]triazolo[1,5-a]pyridin-7-yloxy)-3-chloro-2-fluorophenyl)amino)pyrido[3,2-d]pyrimidin-6-yl)hexahydropyrrolo[3,4-b]pyrrol-1(2H)-yl)prop-2-en-1-one] | 5.93 | 5.55 | 1.5 | 7.98 | 3 | 7.73 |  |  |  | 
C=CC(=O)N1CCC[C@@H](c2ccc3ncnc(Nc4ccc(Oc5ccc6c(c5)ncn6C)c(C)c4F)c3n2)CC1 (racemic) [Example 147, rac-(R)-1-(4-(4-((2-fluoro-3-methy-4-((1-methyl-1H-benzo[d]imidazol-5-yl)oxy)phenyl)amino)pyrido[3,2-d]pyrimidin-6-yl)azepan-1-yl)prop-2-en-1-one] | 6.11 | 5.59 | 2.9 | 7.64 | 2.3 | 7.73 |  |  |  | 
C=CC(=O)N1CC[C@@H]2C[C@H]1CN2c1ccc2ncnc(Nc3cc(C)c(Oc4ccn5ncnc5c4)cc3F)c2n1 [Example 332] |  |  | 1.2 |  | 3.2 |  | 6.71 | 6.47 | 8.23 | 7.96
C=CC(=O)N1CC[C@H](c2ccc3ncnc(Nc4ccc(Oc5ccc6c(c5)ncn6C)c(C)c4F)c3n2)CC(C)(C)C1 (racemic) [Example 140, rac-(R)-1-(5-(4-((2-fluoro-3-methyl-4-((1-methyl-1H-benzo[d]imidazol-5-yl)oxy)phenyl)amino)pyrido[3,2-d]pyrimidin-6-yl)-3,3-dimethylazepan-1-yl)prop-2-en-1-one] | ≤ 5.00 | ≤ 5.30 | 1.2 | 7.51 | 1.9 | 6.65 |  |  |  | 
C=CC(=O)N1[C@@H]2CC[C@H]1CC(c1ccc3ncnc(Nc4ccc(Oc5ccc6c(c5)ncn6C)c(C)c4F)c3n1)C2 (mixture of isomers) [Example 143, rac-1-((1R,5S)-3-(4-((2-fluoro-3-methyl-4-((1-methyl-1H-benzo[d]imidazol-5-yl)oxy)phenyl)amino)pyrido[3,2-d]pyrimidin-6-yl)-8-azabicyclo[3.2.1]octan-8-yl)prop-2-en-1-one] | 5.73 | 5.53 | 1.7 | 7.68 | 3 | 7.49 |  |  |  | 
C=CC(=O)N1C[C@@H](c2ccc3ncnc(Nc4ccc(Oc5ccc6c(c5)ncn6C)c(C)c4F)c3n2)C[C@@H]1C [Example 191, 1-((2S,4S)-4-(4-((2-fluoro-3-methyl-4-((1-methyl-1H-benzo[d]imidazol-5-yl)oxy)phenyl)amino)pyrido[3,2-d]pyrimidin-6-yl)-2-methylpyrrolidin-1-yl)prop-2-en-1-one] | 5.74 | 5.54 | 0.9 | 7.82 | 2.5 | 7.57 |  |  |  | 
C=CC(=O)N1[C@@H]2CC[C@H]1C[C@@H](c1ccc3ncnc(Nc4ccc(Oc5ccn6ncnc6c5)c(Cl)c4F)c3n1)C2 [Example 214, 1-((1R,3r,5S)-3-(4-((4-([1,2,4]triazolo[1,5-a]pyridin-7-yloxy)-3-chloro-2-fluorophenyl)amino)pyrido[3,2-d]pyrimidin-6-yl)-8-azabicyclo[3.2.1]octan-8-yl)prop-2-en-1-one] | 6.55 | ≤ 5.30 | 1.4 | 7.60 | 3.8 | 7.67 |  |  |  | 
